Our source for the IC50 and Emax values is patent US5869500A, “Pyridone compounds useful in treating Alzheimer's disease” (Hoffmann-La Roche Inc., priority 1996, dated 1999).

The subject of assay [1] is Aβ production in HEK cells over-expressing Wild type β-APP. As to the kind of experiment: Aβ production inhibition, sandwich-ELISA in HEK cells which over-express Wild type β-APP (SE-WT). Format: cell-based, human. Particulars: Homo sapiens. On the procedure:
(§1) The effect of test substances on the inhibition of Aβ-amyloid production can be measured in the supernatant of cell cultures of β-APP expressed cells using ELISA tests or other quantitative determination methods for β-APP degradation products. Typically, 8×10^5 cells (e.g. HEK cells, which express recombinant human β-APP variants) are plated out in each well of a culture dish having 24 wells in growth media such as e.g. OPTIMEM (Gibco) and the test compound is then added. After an incubation period of 24 to 48 hours at 37° C. in a 10% CO2 atmosphere the supernatant is removed from the cell cultures and the β-APP degradation products (e.g. Aβ or β-[…]) are determined with the aid of ELISA (or sandwich ELISA) analysis or by means of quantitative immunoprecipitation (after metabolic radiolabelling of the cell proteins). Typically, 300 μl of the cell supernatant are tested according to the state of the art for ELISA tests in culture dishes having 96 wells. In the case of sandwich ELISA for Aβ, the binding antibody can be directed against the first 16 amino acids of Aβ-peptide (e.g. 6E10 Senetek, Maryland Heights, Mo.) and the detection antibody can be directed against amino acids 17-40 or 17-42 of Aβ and carries a detection system such as e.g. peroxidase. A simple ELISA test with an antibody, e.g. 22C11 (Boehringer Mannheim), can be used as the test for […]; the second antibody can be an anti-(mouse) Ig having a detection system, such as e.g. peroxidase. The peroxidase reaction can be carried out e.g. using a TMB substrate (BioRAD) and the measurements can be carried out at 650 nm using an ELISA reading apparatus. […] SE-SFAD signifies the Aβ production inhibition measured using sandwich-ELISA in HEK cells, SFAD signifies over-expressed mutated β-APP, and SE-WT signifies the Aβ production inhibition measured using sandwich-ELISA in HEK cells which over-express Wild type β-APP. The IC50 values are based on the respective plateau of maximum inhibition.
On the technique in general: In an ELISA, binding on a coated surface is turned into a signal by an enzyme label.

For assay [2], the system named is Aβ production in HEK cells over-expressing mutated β-APP (SFAD). The assay is described as follows: Aβ production inhibition, sandwich-ELISA in HEK cells, over-expressed mutated β-APP (SE-SFAD). Format: cell-based, human. The following applies: for IC50: based on the respective plateau of maximum inhibition; for Emax: maximum inhibition plateau, read-out: SE-SFAD max. inhibition %. As to the method: as §1

Where [3] appears, read: Homo sapiens, HEK293, HEK cells.

A word on the IC50: it is the concentration at which inhibition is half-maximal. Read a low IC50 as greater potency. In assay [1] (HEK293, based on the respective plateau of maximum inhibition), `O=C(c1cc(-c2ccccc2)c(=O)n2ccc3ccsc3c12)N1CCC[C@@H]1CI` [Compound 11, 10-(2-(R)-Iodomethyl-pyrrolidine-1-carbonyl)-8-phenyl-thieno[2,3-a]-quinolizin-7-one] displayed an IC50 of 11000 nM. Besides, in assay [1] (HEK293, maximum inhibition plateau, read-out: SE-WT max. inhibition %), the Emax turned out to be 100%. In the case of `COCCN(Cc1ccccc1)C(=O)c1cc(-c2ccc(C(C)(C)C)cc2)c(=O)n2ccc3ccsc3c12` [Compound 113, 8-(4-tert-Butyl-phenyl)-7-oxo-7H-thieno[2,3-a]quinolizine-10-carboxylicacid benzyl-(2-methoxy-ethyl)-amide], in assay [2] (setting [3]), the 50% inhibitory concentration (IC50) stood at 3000 nM and the Emax was 100%. In turn, `COC(=O)c1cc(-c2ccccc2OC)c(=O)n2ccc3ccsc3c12` [Compound 114, Methyl 8-(2-methoxy-phenyl)-7-oxo-7H-thieno[2,3-a]quinolizine-10-carboxylate] returned an IC50 in assay [2] (HEK cells) of 6300 nM. Besides, the Emax in assay [2] (setting [3]) came to 70%. As for `COCCNC(=O)c1cc(-c2ccccc2OC)c(=O)n2ccc3ccsc3c12` [Compound 115, 8-(2-Methoxy-phenyl)-7-oxo-7H-thieno[2,3-a]quinolizine-10-carboxylic acid (2-methoxy-ethyl)-amide], in assay [2] (setting [3]), it took 20000 nM to reach half-maximal inhibition (IC50) and the Emax was 50%.

Consider `COCCN(CC1CC1)C(=O)c1cc(-c2ccccc2OC)c(=O)n2ccc3ccsc3c12` [Compound 119, 8-(2-Methoxy-phenyl)-7-oxo-7H-thieno[2,3-a]quinolizine-10-carboxylic acid cyclopropylmethyl-(2-methoxy-ethyl)-amide], for which, in assay [2] (setting [3]), the IC50 was 1600 nM and the Emax lay in the range of 60 to 80%. The corresponding values for `COCCN(Cc1ccccc1)C(=O)c1cc(-c2ccccc2OC)c(=O)n2ccc3ccsc3c12` [Compound 120, 8-(2-Methoxy-phenyl)-7-oxo-7H-thieno[2,3-a]quinolizine-10-carboxylic acid benzyl-(2-methoxy-ethyl)-amide] are 1800 nM and 100%. On to `COCCN(C(=O)c1cc(-c2ccccc2OC)c(=O)n2ccc3ccsc3c12)c1ccccc1` [Compound 121, 8-(2-Methoxy-phenyl)-7-oxo-7H-thieno[2,3-a]quinolizine-10-carboxylic acid (2-methoxy-ethyl)-phenyl-amide], for which, in assay [2] (setting [3]), the IC50 was 1800 nM and the Emax is 100%. Turning to `CCN(CCOC)C(=O)c1cc(-c2ccccc2OC)c(=O)n2ccc3ccsc3c12` [Compound 122, 8-(2-Methoxy-phenyl)-7-oxo-7H-thieno[2,3-a]quinolizine-10-carboxylic acidethyl-(2-methoxy-ethyl)-amide], in assay [2] (setting [3]), the IC50 was found to be 8000 nM and the Emax was 25%. `COc1cccc(-c2cc(C(=O)Nc3ccc(OC)c(OC)c3)c3c4sccc4ccn3c2=O)c1` [Compound 123, 8-(3-Methoxy-phenyl)-7-oxo-7H-thieno[2,3-a]quinolizine-10-carboxylic acid (3,4-dimethoxy-phenyl)-amide]: in assay [2] (setting [3]), half-maximal inhibition (IC50) was put at 800 nM and the Emax was 100%. In the case of `COc1cccc(-c2cc(C(=O)Nc3ccncc3)c3c4sccc4ccn3c2=O)c1` [Compound 124, 8-(3-Methoxy-phenyl)-7-oxo-7H-thieno[2,3-a]quinolizine-10-carboxylic acid pyridin-4yl-amide], in assay [2] (setting [3]), the IC50 amounted to 800 nM and the Emax worked out at 35%. On to `COCCN(Cc1cccs1)C(=O)c1cc(-c2cccc(OC)c2)c(=O)n2ccc3ccsc3c12` [Compound 125, 8-(3-Methoxy-phenyl)-7-oxo-7H-thieno[2,3-a]quinolizine-10-carboxylic acid (2-methoxy-ethyl)-thiophen-2-yl-methyl-amide], for which, in assay [2] (setting [3]), 2000 nM corresponded to half-maximal inhibition (IC50) and the Emax came out at 10%. Turning to `C#CCN(C(=O)c1cc(-c2cccc(OC)c2)c(=O)n2ccc3ccsc3c12)c1ccccc1` [Compound 127, 8-(3-Methoxy-phenyl)-7-oxo-7H-thieno[2,3-a]quinolizine-10-carboxylic acid phenyl-prop-2-ynyl-amide], in assay [2] (setting [3]), the IC50 amounted to 800 nM and the Emax turned out to be 100%. On to `COc1ccccc1-c1cc(C(=O)NCc2ccccc2)c2c3sccc3ccn2c1=O` [Compound 135, 8-(2-Methoxy-phenyl)-7-oxo-7H-thieno[2,3-a]quinolizine-10-carboxylic acid benzyl-amide], for which, in assay [2] (setting [3]), the 50% inhibitory concentration (IC50) stood at 3000 nM and the Emax came to 100%. For the compound `COCCN(Cc1ccco1)C(=O)c1cc(-c2ccccc2OC)c(=O)n2ccc3ccsc3c12` [Compound 139, 8-(2-Methoxy-phenyl)-7-oxo-7H-thieno[2,3-a]quinolizine-10-carboxylic acid (furan-2-yl-methyl)-(2-methoxy-ethyl)-amide], in assay [2] (setting [3]), the IC50 amounted to 3300 nM and the Emax worked out at 100%. `COCCN(Cc1cccs1)C(=O)c1cc(-c2ccccc2OC)c(=O)n2ccc3ccsc3c12` [Compound 140, 8-(2-Methoxy-phenyl)-7-oxo-7H-thieno[2,3-a]quinolizine-10-carboxylic acid (2-methoxy-ethyl)-thiophen-2-yl-methyl-amide]: in assay [2] (setting [3]), the IC50 came out at 2500 nM and the Emax was in the range of 30 to 100%. The corresponding values for `COc1ccc(NC(=O)c2cc(-c3ccccc3OC)c(=O)n3ccc4ccsc4c23)cc1` [Compound 142, 8-(2-Methoxy-phenyl)-7-oxo-7H-thieno[2,3-a]quinolizine-10-carboxylic acid (4-methoxy-phenyl)-amide] are 1500 nM and 20 to 100%. Turning to `C#CCN(C(=O)c1cc(-c2ccccc2OC)c(=O)n2ccc3ccsc3c12)c1ccccc1` [Compound 143, 8-(2-Methoxy-phenyl)-7-oxo-7H-thieno[2,3-a]quinolizine-10-carboxylic acid phenyl-prop-2-ynyl-amide], in assay [2] (setting [3]), half-maximal inhibition (IC50) required 5500 nM and the Emax lay within 40 to 100%. For `CCN(CCOC)C(=O)c1cc(-c2ccc(OC)cc2)c(=O)n2ccc3ccsc3c12` [Compound 144, 8-(4-Methoxy-phenyl)-7-oxo-7H-thieno[2,3-a]quinolizine-10-carboxylic acid ethyl-(2-methoxy-ethyl)-amide], in assay [2] (setting [3]), the IC50 came to 2000 nM and the Emax was 40%. For `COCCN(CCOC)C(=O)c1cc(-c2ccc(OC)cc2)c(=O)n2ccc3ccsc3c12` [Compound 145, 8-(4-Methoxy-phenyl)-7-oxo-7H-thieno[2,3-a]quinolizine-10-carboxylic acid bis-(2-methoxy-ethyl)-amide], in assay [2] (setting [3]), the concentration for half-maximal inhibition (IC50) stood at 5000 nM and the Emax came out at 100%.

Turning to `COCCN(CC1CC1)C(=O)c1cc(-c2ccc(OC)cc2)c(=O)n2ccc3ccsc3c12` [Compound 146, 8-(4-Methoxy-phenyl)-7-oxo-7H-thieno[2,3-a]quinolizine-10-carboxylic acid cyclopropylmethyl-(2-methoxy-ethyl)-amide], in assay [2] (setting [3]), the half-maximal inhibitory concentration (IC50) came to 1500 nM and the Emax was 100%. The corresponding values for `COCCN(C(=O)c1cc(-c2ccc(OC)cc2)c(=O)n2ccc3ccsc3c12)c1ccccc1` [Compound 147, 8-(4-Methoxy-phenyl)-7-oxo-7H-thieno[2,3-a]quinolizine-10-carboxylic acid (2-methoxy-ethyl)-phenyl-amide] are 1500 nM and 100%. The matching figures for `CCCN(CCOC)C(=O)c1cc(-c2ccc(OC)cc2)c(=O)n2ccc3ccsc3c12` [Compound 148, 8-(4-Methoxy-phenyl)-7-oxo-7H-thieno[2,3-a]quinolizine-10-carboxylic acid (2-methoxy-ethyl)-propyl-amide]: 5000 nM and 100%. The corresponding values for `CCN(CCOC)C(=O)c1cc(-c2ccc(C)cc2)c(=O)n2ccc3ccsc3c12` [Compound 149, 7--Oxo-8-p-tolyl-7H-thieno[2,3-a]quinolizine-10-carboxylic acid ethyl-(2-methoxy-ethyl)-amide] are 2400 nM and 100%. With `COCCN(CCOC)C(=O)c1cc(-c2ccc(C)cc2)c(=O)n2ccc3ccsc3c12` [Compound 150, 7--Oxo-8-p-tolyl-7H-thieno[2,3-a]quinolizine-10-carboxylic acid bis-(2-methoxy-ethyl)-amide], in assay [2] (setting [3]), inhibition was half-maximal at 2700 nM (IC50) and the Emax is 100%. The corresponding values for `CCOC(=O)c1cc(-c2ccc(C)cc2)c(=O)n2ccc3ccsc3c12` [Compound 151, Ethyl 7-oxo-8-p-tolyl-7H-thieno[2,3-a]quinolizine-10-carboxylate] are 800 nM and 100%.

Consider `COCCN(C(=O)c1cc(-c2ccccc2N)c(=O)n2ccc3ccsc3c12)c1ccccc1` [Compound 153, 8-(2-Amino-phenyl)-7-oxo-7H-thieno[2,3-a]chinolizine-10-carboxylic acid (2-methoxy-ethyl)-phenyl-amide], for which the Emax in assay [2] (setting [3]) is 20 to 40%.
